Patent US6593362B2, “Non-peptidic cyclophilin binding compounds and their use” (Guilford Pharmaceuticals Inc., priority 2001, dated 2003)
pIC50: −log10 of the molar value.

Key:
CyP A = CyP A (Homo sapiens, UniProt P62937); experiment: biochemical; conditions: for inhibition at 10 µM: read-out: % Inhibition at 10 μM
Method: A number of substrates for rotamase are known in the art or can be derived from those known. Typically, the substrate contacts a sample containing a protein with rotamase activity and the conversion of the substrate is detected after a period of time. The method for detecting conversion of the substrate will vary with the particular substrate chosen.
The following were added to a plastic cuvette: […] of ice cold assay buffer (25 mM HEPES, pH 7.8, 100 mM NaCl), 10 μL of CyP A (2.5 μM in 10 mM Tris-Cl pH 7.5, 100 mM NaCl, 1 mM dithiothreitol), 25 μL of chymotrypsin (50 mg/ml in 1 mM HCl), and 10 μL of test compound, at various concentrations, in dimethyl sulfoxide. The reaction was initiated by the addition of 5 μL of substrate (succinyl-Ala-Phe-Pro-Phe-para-nitroanilide, 5 mg/mL in 470 mM LiCl in trifluoroethanol). The absorbance at 390 nm versus time was monitored for 90 seconds using a spectrophotometer.
While CyP A is used in these examples, other CyP proteins can be substituted.

ventral horn motoneurons = experiment: Neuroprotection assay, THA-treated organotypic spinal cord slice cultures; format: cell-based; conditions: THA 200 μM + compound 10 μM, rat spinal cord slice cultures, FIGS. 1-6
Method: For each of FIGS. 1-6, the bar graphs represent the number of viable neurons after a specified treatment regimen employed in a neuroprotective activity assay. The cells of the experiments were treated with a control solution, a neurotoxic solution, and neurotoxic+experimental compound solution. The statistical significance, p, is calculated using the standard 2 tailed Student's t test.
Protection of cells from calcium-related physiological stress can be assessed in a neuroprotection assay. Organotypic slice cultures of rat spinal cord tissue display a protracted loss of ventral horn motoneurons when exposed to the glutamate uptake inhibitor THA. […] Each experiment consisted of two 6-well plates with 5 slices from 4 different animals per well. Media changes were performed every 3 to 4 days. […] The control was an untreated sample with 0.1% DMSO as vehicle. The THA control was a THA treated sample with 0. 1% DSMO as vehicle. Two wells were used per condition. One media change with new THA and compounds was performed. The experiment was stopped 6 to 8 days following drug treatment (13-15 total days in vitro, DIV) as dictated by visual assessment of lesion, by fixation with 4% paraformaldehyde/0.1 M phosphate buffer for 30 minutes. Slices were permeabilized with 100% cold methanol for 10 minutes. Slices were transferred to staining wells. The slices were blocked with 10% horse serum/TBS. Primary antibody incubation was overnight at 4° C. with SMI-32 antibody 1:5000 in 2% horse serum/TBS. SMI-32 is specific towards the unphosphorylated H neurofilament subunit, and was here utilized as a marker for ventral horn motoneurons. A Vectastain ABC Elite Kit with rat absorbed anti-mouse secondary antibody was used with DAB to stain the slices. The slices were mounted under DPX mounting solution for microscopy.
Quantification of surviving neurons was performed on a Zeiss Axiovert microscope. Neuronal survival was determined by observing an intact neuronal cell body with processes located ventrally of the central canal in each hemisphere. This correlated to laminae VII, VIII and IX. Each hemisphere was counted individually. The statistics were performed with StatView software on a minimum of three different experiments per condition and significance was determined as compared to THA control. The percent of protection was determined from the average number of living neurons by the following equation: (drug treatment condition —THA control)/(Untreated control-THA control).

neuronal cells = experiment: Neurotrophic or neuroprotectant activity (assay not specified); format: cell-based
Description: In general, activity in the nervous system for a particular compound can be identified by assaying for the ability to promote neurite outgrowth, protect neurons from damage by chemical treatments, promote the growth of neurons or neuronal cells, recover lost or damaged motor, functional or cognitive ability associated with nervous tissue or organs of the nervous system, or regenerate neurons. These activities can be useful in treating, diagnosing, or prognosing a number of human disease conditions, including, but not limited to, Parkinson's disease, Alzheimer's disease, amyotrophic lateral sclerosis (ALS), traumatic injury, spinal cord injury, multiple sclerosis, diabetic neuropathy, neuropathy associated with medical treatments such as chemotherapy, ischemia or ischemia-induced injury, stroke, oxygen deprivation, retinopathies, peripheral neuropathies, and neuropathies associated with viral infection.
Preferred methods for detecting neuronal activity include a neuroprotective assay, in which a compound is tested for the ability to protect against treatment causing glutamate neurotoxicity. Sensory neuronal cultures (DRG) can also be assayed for neurite outgrowth, an assay for neurotrophic activity. […] Immunohistochemistry can aid in the visualization and quantitation of neurites as compared to control.

Chain of CyP A (P62937 whole entry): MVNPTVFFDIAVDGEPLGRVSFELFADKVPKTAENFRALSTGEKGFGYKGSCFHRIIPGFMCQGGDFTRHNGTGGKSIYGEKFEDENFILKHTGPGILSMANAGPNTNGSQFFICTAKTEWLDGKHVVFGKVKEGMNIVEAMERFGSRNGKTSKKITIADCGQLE

Question: With `O=C(NCc1cccc(CNC(=O)Nc2cc(Cl)cc(Cl)c2)c1)Nc1cc(Cl)cc(Cl)c1` [Compound 30] as the molecule, how does the inhibition at 10 µM (CyP A) read?
Answer: 88%

Question: With `Cc1ccc(NC(=O)N(Cc2ccccc2)Cc2ccccc2)cc1NC(=O)N(Cc1ccccc1)Cc1ccccc1` [Compound 4] as the molecule, how does the “neuroprotective activity (number of viable neurons)” value (shortened to “neuroprotective activity”) (ventral horn motoneurons) read?
Answer: displays neuroprotective activity

Question: What about the pIC50 (CyP A) of the same molecule?
Answer: 6.10

Question: What about the inhibition at 10 µM (CyP A) of the same molecule?
Answer: 100%

Question: With `O=C(Nc1cccc(S(=O)(=O)NC(c2ccccc2)c2ccccc2)c1)c1cc(Cl)cc(Cl)c1` [Compound 18] as the molecule, how does the pIC50 (CyP A) read?
Answer: 6.28

Question: And the inhibition at 10 µM (CyP A)?
Answer: 100%

Question: With `CSc1ccc(Cl)cc1C(=O)Nc1cccc(NC(=O)c2cc(Cl)ccc2SC)c1` [Compound 6] as the molecule, how does the “neurotrophic or neuroprotectant activity” value (neuronal cells) read?
Answer: possess neurotrophic or neuroprotectant activity

Question: And the inhibition at 10 µM (CyP A)?
Answer: 100%

Question: Which melting point does the source give for `O=C(NCc1cccc2ccccc12)c1cccc(NC(=O)c2cc(Cl)cc(Cl)c2)c1` [Compound 16, {3-[(3,5-dichlorophenyl)carbonylamino]phenyl}-N-(naphthylmethyl) formamide] here?
Answer: 205 to 208 °C

Question: What about the inhibition at 10 µM (CyP A) of the same molecule?
Answer: 100%

Question: Which inhibition at 10 µM (CyP A) does the source give for `NC(=O)c1ccccc1NC(=O)Nc1cc(NC(=O)Nc2ccccc2C(N)=O)c(Br)cc1Br` [Compound 1] here?
Answer: 100%

Question: Which inhibition at 10 µM (CyP A) does the source give for `O=C(Nc1cccc(NC(=O)N(c2ccccc2)c2ccccc2)c1)N(c1ccccc1)c1ccccc1` [Compound 22] here?
Answer: 100%

Question: For `O=C(Nc1cccc(NC(=O)Nc2ccon2)c1)Nc1ccon1` [Compound 11], which “neuroprotective activity” value (ventral horn motoneurons) is on record?
Answer: displays neuroprotective activity

Question: What about the pIC50 (CyP A) of the same molecule?
Answer: 5.40

Question: And the inhibition at 10 µM (CyP A)?
Answer: 93%

Question: With `O=C(Nc1ccccc1)Nc1cc(NC(=O)Nc2ccccc2)cc(C(F)(F)F)c1` [Compound 7] as the molecule, how does the “neurotrophic or neuroprotectant activity” value (neuronal cells) read?
Answer: possess neurotrophic or neuroprotectant activity

Question: And the inhibition at 10 µM (CyP A)?
Answer: 100%

Question: With `O=C(NCC1CCCC(CNC(=O)Nc2cc(Cl)cc(Cl)c2)C1)Nc1cc(Cl)cc(Cl)c1` (centres unmarked) [Compound 25] as the molecule, how does the inhibition at 10 µM (CyP A) read?
Answer: 100%

Question: For `O=C(Nc1ccc(I)cc1)Nc1cc(NC(=O)Nc2ccc(I)cc2)c(Br)cc1Br` [Compound 3], which “neuroprotective activity” value (ventral horn motoneurons) is on record?
Answer: displays neuroprotective activity

Question: And the pIC50 (CyP A)?
Answer: 6.22

Question: Which “neuroprotective activity” value (ventral horn motoneurons) does the source give for cyclosporin A [CsA, reference compound] here?
Answer: maintains neuronal viability

Question: For `O=C(Nc1cccc(NC(=O)Nc2ccc(Br)cc2Br)c1)Nc1ccc(Br)cc1Br` [Compound 29], which inhibition at 10 µM (CyP A) is on record?
Answer: 89%

Question: With `O=C(Nc1cccc(S(=O)(=O)NC(c2ccccc2)c2ccccc2)c1)C(c1ccccc1)c1ccccc1` [Compound 17] as the molecule, how does the pIC50 (CyP A) read?
Answer: 6.19

Question: What about the inhibition at 10 µM (CyP A) of the same molecule?
Answer: 99%

Question: Which inhibition at 10 µM (CyP A) does the source give for `O=C(NCc1cccc(CNC(=O)Nc2ccc(Br)cc2Br)c1)Nc1ccc(Br)cc1Br` [Compound 31] here?
Answer: 100%

Question: Which inhibition at 10 µM (CyP A) does the source give for `O=C(NCc1cccc2ccccc12)Nc1cccc(NC(=O)NCc2cccc3ccccc23)c1` [Compound 21] here?
Answer: 100%

Question: Which inhibition at 10 µM (CyP A) does the source give for `O=C(Nc1cc(Cl)cc(Cl)c1)c1cccc(C(=O)Nc2cc(Cl)cc(Cl)c2)c1` [Compound 14] here?
Answer: 100%

Question: For `O=C(Nc1ccc(Br)cc1Br)NC1CCCC(NC(=O)Nc2ccc(Br)cc2Br)C1` (centres unmarked) [Compound 24], which inhibition at 10 µM (CyP A) is on record?
Answer: 100%

Question: For `O=C(Nc1cc(Cl)cc(Cl)c1)Nc1cccc(NC(=O)Nc2cc(Cl)cc(Cl)c2)c1` [Compound 28], which inhibition at 10 µM (CyP A) is on record?
Answer: 100%

Question: For `COc1cccc(NC(=O)NC2CCCC(NC(=O)Nc3cccc(OC)c3)C2)c1` (centres unmarked) [Compound 12], which “neuroprotective activity” value (ventral horn motoneurons) is on record?
Answer: displays neuroprotective activity

Question: What about the pIC50 (CyP A) of the same molecule?
Answer: 5.02

Question: What about the inhibition at 10 µM (CyP A) of the same molecule?
Answer: 47.7%

Question: For `O=C(NCC1CCCC(CNC(=O)Nc2cc(Br)cc(Br)c2)C1)Nc1cc(Br)cc(Br)c1` (centres unmarked) [Compound 26], which inhibition at 10 µM (CyP A) is on record?
Answer: 100%

Question: For `O=C(Nc1cc(Cl)cc(Cl)c1)NC1CCCC(NC(=O)Nc2cc(Cl)cc(Cl)c2)C1` (centres unmarked) [Compound 23], which inhibition at 10 µM (CyP A) is on record?
Answer: 100%

Question: Which results are given for `O=S(=O)(Nc1cccc(OCCc2cccc3ccccc23)c1)c1cccc2ccccc12` [Compound 13]?
Answer: melting point: 165 to 167 °C; pIC50 (CyP A): 6.08; inhibition at 10 µM (CyP A): 100%

Question: Which inhibition at 10 µM (CyP A) does the source give for `Cc1ccc(NC(=O)Nc2cccc(NC(=O)Nc3ccc(C)cc3C)c2)c(C)c1` [Compound 27] here?
Answer: 100%

Question: With `O=C(Nc1cccc2ccccc12)NC1CCCC(NC(=O)Nc2cccc3ccccc23)C1` (centres unmarked) [Compound 10] as the molecule, how does the pIC50 (CyP A) read?
Answer: 5.35

Question: What does the source list for `CN(C)c1ccc(NC(=O)Nc2cc(NC(=O)Nc3ccc(N(C)C)cc3)c(Br)cc2Br)cc1` [Compound 19]?
Answer: pIC50 (CyP A): 5.54; inhibition at 10 µM (CyP A): 98%
